Test results published in ChEMBL document CHEMBL1201862, “PubChem BioAssay data set” (2004).
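Assay format: 96-well plates, 48-hour exposure. GI50 = concentration required for 50% inhibition of growth.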 Calls of active or inactive are those of the source. No stated cut-off is given here; in the data, active = GI50 up to about 1.1 µM and inactive = higher.

Legend:
Test in all cases: growth of human tumour cells (NCI), 48 h
[1] = system: SK-OV-3
[2] = system: BT-549
[3] = system: KM12
[4] = system: SF-539
[5] = system: Malme-3M
[6] = system: RPMI-8226
[7] = system: MCF7
[8] = system: SF-295
[9] = system: HL-60
[10] = system: OVCAR-4
[11] = system: UO-31
[12] = system: IGROV-1
[13] = system: SW-620
[14] = system: SF-268
[15] = system: COLO 205
[16] = system: OVCAR-8
[17] = system: HCT-116
[18] = system: HOP-92
[19] = system: M14
[20] = system: HOP-62

| SMILES | GI50 [1] | GI50 [2] | GI50 [3] | GI50 [4] | GI50 [5] | GI50 [6] | GI50 [7] | GI50 [8] | GI50 [9] | GI50 [10] | GI50 [11] | GI50 [12] | GI50 [13] | GI50 [14] | GI50 [15] | GI50 [16] | GI50 [17] | GI50 [18] | GI50 [19] | GI50 [20] |
| --- | --- | --- | --- | --- | --- | --- | --- | --- | --- | --- | --- | --- | --- | --- | --- | --- | --- | --- | --- | --- |
| CC(=O)OC(=C(C#N)C#N)c1nccnc1C(=O)O | > 100 µM (inactive) | > 100 µM (inactive) | > 100 µM (inactive) | > 100 µM (inactive) | > 100 µM (inactive) | > 100 µM (inactive) | > 100 µM (inactive) | > 100 µM (inactive) | > 100 µM (inactive) | > 100 µM (inactive) | > 100 µM (inactive) | > 100 µM (inactive) | > 100 µM (inactive) | > 100 µM (inactive) | > 100 µM (inactive) | > 100 µM (inactive) | > 100 µM (inactive) | > 100 µM (inactive) | > 100 µM (inactive) |  |
| O=C(/N=C1/OC(CN2CCOCC2)CN1C(=O)Nc1ccccc1)Nc1ccccc1 (configuration not stated) | > 100 µM (inactive) | > 100 µM (inactive) | > 100 µM (inactive) |  | > 100 µM (inactive) | > 100 µM (inactive) | > 100 µM (inactive) | > 100 µM (inactive) | > 100 µM (inactive) | > 100 µM (inactive) | > 100 µM (inactive) | > 100 µM (inactive) | > 100 µM (inactive) | > 100 µM (inactive) | > 100 µM (inactive) | > 100 µM (inactive) | > 100 µM (inactive) | 94.6 µM (inactive) | > 100 µM (inactive) | > 100 µM (inactive) |
| CCOC(=O)C(C)c1nc2cc(C(F)(F)F)ccc2[nH]c1=O (configuration not stated) | > 100 µM (inactive) | > 100 µM (inactive) | > 100 µM (inactive) | > 100 µM (inactive) | > 100 µM (inactive) | 51.9 µM (inactive) | > 100 µM (inactive) | 49.2 µM (inactive) | 62.7 µM (inactive) | 81.5 µM (inactive) | > 100 µM (inactive) |  | > 100 µM (inactive) | > 100 µM (inactive) | > 100 µM (inactive) | > 100 µM (inactive) | 88.9 µM (inactive) | 71.1 µM (inactive) | > 100 µM (inactive) | > 100 µM (inactive) |
| O=[N+]([O-])c1ccc(CSc2nn(Cc3ccc([N+](=O)[O-])cc3)cc3ncnc2-3)cc1 | > 100 µM (inactive) | 21 µM (inactive) | 30.4 µM (inactive) | 32 µM (inactive) | 27.4 µM (inactive) | 14.8 µM (inactive) | 27.9 µM (inactive) | 45.3 µM (inactive) | 21.5 µM (inactive) | 52.5 µM (inactive) | 12.1 µM (inactive) | 20.4 µM (inactive) | 21.7 µM (inactive) |  | 39.5 µM (inactive) | 33.2 µM (inactive) | 37.1 µM (inactive) | 0.361 µM (active) | 34.8 µM (inactive) | 31.8 µM (inactive) |
| c1ccc(COc2nc3cc(C45CC6CC(CC(C6)C4)C5)ccc3[nH]2)cc1 | 29.8 µM (inactive) | 19.8 µM (inactive) | 15.5 µM (inactive) |  | 9.16 µM (inactive) | 5.07 µM (inactive) | 4.7 µM (inactive) | 6.7 µM (inactive) | 9.38 µM (inactive) | > 31.3 µM (inactive) | 6.22 µM (inactive) | 13.6 µM (inactive) | 21.4 µM (inactive) | 31.3 µM (inactive) | 4.01 µM (inactive) | 18 µM (inactive) | 9.08 µM (inactive) | 7.29 µM (inactive) | 17.2 µM (inactive) | 24.4 µM (inactive) |
| COC1=CC(=O)N(C)C(O)C1(C#N)OC1OC(CO)C(O)C(O)C1O (configuration not stated) | > 100 µM (inactive) | > 100 µM (inactive) | > 100 µM (inactive) | > 100 µM (inactive) |  | > 100 µM (inactive) | > 100 µM (inactive) | > 100 µM (inactive) | > 100 µM (inactive) | > 100 µM (inactive) | > 100 µM (inactive) | > 100 µM (inactive) | > 100 µM (inactive) | > 100 µM (inactive) | > 100 µM (inactive) | > 100 µM (inactive) | > 100 µM (inactive) | > 100 µM (inactive) | > 100 µM (inactive) | > 100 µM (inactive) |
| CC(C)(C)c1cc(-c2cc(C(C)(C)C)n(-c3ccccc3)n2)nn1-c1ccccc1 | > 100 µM (inactive) | > 100 µM (inactive) | 84.5 µM (inactive) | > 100 µM (inactive) |  | > 100 µM (inactive) | > 100 µM (inactive) | > 100 µM (inactive) | > 100 µM (inactive) | > 100 µM (inactive) | 30.4 µM (inactive) | > 100 µM (inactive) | 8.57 µM (inactive) | > 100 µM (inactive) | 48.6 µM (inactive) | > 100 µM (inactive) | > 100 µM (inactive) | > 100 µM (inactive) | > 100 µM (inactive) | > 100 µM (inactive) |
| O=C1c2c(O)cc(O)cc2C(C2OC(CO)C(O)C(O)C2O)c2cc(CO)cc(O)c21 (configuration not stated) | > 100 µM (inactive) | > 100 µM (inactive) |  |  | 55.7 µM (inactive) | > 100 µM (inactive) | > 100 µM (inactive) | > 100 µM (inactive) | > 100 µM (inactive) | > 100 µM (inactive) | > 100 µM (inactive) | > 100 µM (inactive) | > 100 µM (inactive) | > 100 µM (inactive) | > 100 µM (inactive) | > 100 µM (inactive) | > 100 µM (inactive) | > 100 µM (inactive) | > 100 µM (inactive) | > 100 µM (inactive) |
| CC(=O)OC/C=C(/C=C/CNC1CCCCC1)OC(C)=O | 19.6 µM (inactive) | 16.9 µM (inactive) | 15.5 µM (inactive) | 11.6 µM (inactive) | 14.9 µM (inactive) | 4.83 µM (inactive) | 22 µM (inactive) | 18.1 µM (inactive) | > 10 µM (inactive) | 20.8 µM (inactive) |  | 18.6 µM (inactive) | 14 µM (inactive) | 17.1 µM (inactive) | 13.9 µM (inactive) | > 10 µM (inactive) | 14.9 µM (inactive) | 12.5 µM (inactive) | 8.28 µM (inactive) | 16.5 µM (inactive) |
| CCN1CN(c2ccccc2)C2(CCN(CC(CC3OCCO3)c3ccc(F)cc3)CC2)C1=O (configuration not stated) | 39.8 µM (inactive) | 21.6 µM (inactive) | 10.7 µM (inactive) | 9.53 µM (inactive) | 19.7 µM (inactive) | 10.4 µM (inactive) | 2.26 µM (inactive) | 5.69 µM (inactive) | 17.7 µM (inactive) | 13.5 µM (inactive) | 26.2 µM (inactive) | 6.75 µM (inactive) | 6.35 µM (inactive) | 5.19 µM (inactive) | 0.703 µM (active) | 8.81 µM (inactive) | 3.36 µM (inactive) | 2.13 µM (inactive) | 5.24 µM (inactive) | 4.23 µM (inactive) |
| C[C@H]1CN[C@@H]2[C@@H](C)[C@H]3[C@@H](C[C@H]4[C@@H]5CC[C@H]6C[C@@H](N)CC[C@]6(C)[C@H]5CC[C@]34C)O[C@@]2(O)C1 | 6.67 µM (inactive) | 2.19 µM (inactive) | 1.91 µM (inactive) | 1.27 µM (inactive) | 1.64 µM (inactive) | 2.28 µM (inactive) | 4.18 µM (inactive) | 2.92 µM (inactive) | 1.64 µM (inactive) | 3.75 µM (inactive) | 2.25 µM (inactive) | 2.15 µM (inactive) | 2.25 µM (inactive) | 1.5 µM (inactive) | 1.51 µM (inactive) | 2.04 µM (inactive) | 1.29 µM (inactive) | 2.47 µM (inactive) | 2.04 µM (inactive) |  |
| CCc1n[nH]c(=O)n1N1C(=O)C2CCCCC2C1=O (configuration not stated) | > 100 µM (inactive) | > 100 µM (inactive) | > 100 µM (inactive) |  | > 100 µM (inactive) | > 100 µM (inactive) | > 100 µM (inactive) | > 100 µM (inactive) | > 100 µM (inactive) | > 100 µM (inactive) | > 100 µM (inactive) | > 100 µM (inactive) | > 100 µM (inactive) | > 100 µM (inactive) | > 100 µM (inactive) | > 100 µM (inactive) | > 100 µM (inactive) | > 100 µM (inactive) | > 100 µM (inactive) | > 100 µM (inactive) |
| CC(=O)OCCC1c2ccccc2-n2nc(-c3ccccc3)c(O)c21 (configuration not stated) |  | 17.1 µM (inactive) | 16.6 µM (inactive) | 21.6 µM (inactive) | > 10 µM (inactive) | 8.07 µM (inactive) | 7.11 µM (inactive) | 20 µM (inactive) | 11.1 µM (inactive) | 14.3 µM (inactive) | 16.7 µM (inactive) | > 10 µM (inactive) | 15.8 µM (inactive) | 34.7 µM (inactive) | 20.1 µM (inactive) | 15.7 µM (inactive) | 16.5 µM (inactive) | 11.9 µM (inactive) | 15.3 µM (inactive) | 15.2 µM (inactive) |
| O[C@@]1(c2cccs2)c2cccc(Cl)c2[C@](O)(c2cccs2)c2cccc(Cl)c21 | 22.6 µM (inactive) | 19.2 µM (inactive) | 16.4 µM (inactive) | 29.2 µM (inactive) | 17.8 µM (inactive) | 22 µM (inactive) | 18.5 µM (inactive) | 11.1 µM (inactive) | 16.6 µM (inactive) | 18.2 µM (inactive) | 46.7 µM (inactive) | 16.3 µM (inactive) | 17.3 µM (inactive) | 19.8 µM (inactive) | 19.5 µM (inactive) | 55.7 µM (inactive) | 13.2 µM (inactive) | 67.9 µM (inactive) | 15.4 µM (inactive) | 26.1 µM (inactive) |
